Laboratory results as given in US10179161B2, “Compositions and methods for enhancing cardiac function in the neonate” (priority 2016, dated 2019).

Experiments:
[1] = test system: supercomplex assembly (synthasomes); experiment: synthasome levels by clear native immunoblot in adult heart mitochondria; assay type: biochemical, mice; details: 0.5 mM; n=7
Description: Inhibition of CyPD should […] the assembly of the ETC into supercomplexes.
Adult heart mitochondria were used to show decreased supercomplex assembly after PTP opening and increased supercomplex assembly after PTP inhibition or deletion (FIG. 1). A: Mitochondrial permeability transition was induced by 60 μM free Ca^2+ (arrow) and was inhibited by 0.5 mM ADP or 200 nM CsA (top panel). Swelling, indicating PTP opening and a fall in absorbance, is reversible after the addition of 250 μM EGTA (arrow; bottom panel). […] The experimental conditions are summarized below the blot. […] Note that the ATP synthase IGA results a white reaction product, so the shading is correct. (N=4, * p≤0.05, ** p≤0.001 by T-test).

CyPD = details: cited from earlier work
adult animals = details: 10 mg/Kg IV; cited from earlier work

## Nc1ncnc2c1ncn2[C@@H]1O[C@H](COP(=O)(O)OP(=O)(O)O)[C@@H](O)[C@H]1O [ADP]
[1]
  Ca2+-induced PT decrease of synthasome levels: inhibited

## CC[C@H]1C[C@H](C)[C@@]2(NC1=O)O[C@@H](C[C@H](O)[C@@H](C)CC/C=C/C=C(\C)[C@@H]1C/C=C/C=C/[C@H](O)[C@H](C)[C@@H](O)[C@@H](CCC(C)=O)C(=O)N[C@@H](C(C)C)C(=O)N[C@@H](Cc3cccc(O)c3)C(=O)N3CCC[C@H](N3)C(=O)O1)[C@H](C)[C@H](O)[C@@H]2C [Sangliferin A, Sanglifehrin A]
CyPD
  K0.5 as a CyPD inhibitor: 2 nM
  potency as a CyPD inhibitor relative to CsA: more potent

## Alisporivir
CyPD
  potency as a CyPD inhibitor relative to CsA: about as potent as CsA
Adult animals
  effects of ischemia reperfusion injury in the heart: ameliorate
